Results taken from ChEMBL document CHEMBL5113513, “Selective Inhibitors of Medium-Size S1' Pocket Matrix Metalloproteinases: A Stepping Stone of Future Drug Discovery” (J Med Chem, 2022).
In brackets after ≈: the same amount, converted by molar mass. Each block holds one molecule with its values, some of them ahead of it.

Experiments:
[1] = Inhibition of brain damage in C57BL/6J mouse traumatic brain injury model at 25 mg/kg, ip for 7 days by cresyl violet-staining based histopathological analysis; format: functional; settings: 168 h, time 7 day
Interstitial collagenase [2] = molecular target: T1, Interstitial collagenase (Homo sapiens, UniProt P03956); assay: Inhibition of human MMP-1 using Mca-Pro-Leu-Gly-Leu-Dpa-Ala-Arg-NH2 as substrate preincubated for 1 hr followed by susbstrate addition by fluorescent analysis
T1 sequence (P03956 whole entry): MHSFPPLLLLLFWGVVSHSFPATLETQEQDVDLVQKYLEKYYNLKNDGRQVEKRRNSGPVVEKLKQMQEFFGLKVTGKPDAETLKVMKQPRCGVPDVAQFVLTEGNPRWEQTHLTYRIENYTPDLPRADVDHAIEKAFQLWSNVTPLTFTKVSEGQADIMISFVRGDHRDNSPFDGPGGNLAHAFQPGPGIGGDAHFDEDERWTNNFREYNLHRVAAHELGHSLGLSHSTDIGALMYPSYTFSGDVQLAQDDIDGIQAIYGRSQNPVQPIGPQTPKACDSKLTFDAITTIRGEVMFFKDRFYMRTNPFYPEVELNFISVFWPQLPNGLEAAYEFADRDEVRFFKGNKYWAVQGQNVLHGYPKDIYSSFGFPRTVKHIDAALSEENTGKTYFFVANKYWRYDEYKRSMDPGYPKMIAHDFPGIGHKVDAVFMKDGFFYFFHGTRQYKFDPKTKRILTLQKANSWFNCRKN

Neutrophil collagenase [3] = molecular target: T2, Neutrophil collagenase (Homo sapiens, UniProt P22894); assay: Inhibition of human MMP-8 using Mca-Pro-Leu-Gly-Leu-Dpa-Ala-Arg-NH2 as substrate preincubated for 1 hr followed by susbstrate addition by fluorescent analysis
T2 sequence (P22894 whole entry): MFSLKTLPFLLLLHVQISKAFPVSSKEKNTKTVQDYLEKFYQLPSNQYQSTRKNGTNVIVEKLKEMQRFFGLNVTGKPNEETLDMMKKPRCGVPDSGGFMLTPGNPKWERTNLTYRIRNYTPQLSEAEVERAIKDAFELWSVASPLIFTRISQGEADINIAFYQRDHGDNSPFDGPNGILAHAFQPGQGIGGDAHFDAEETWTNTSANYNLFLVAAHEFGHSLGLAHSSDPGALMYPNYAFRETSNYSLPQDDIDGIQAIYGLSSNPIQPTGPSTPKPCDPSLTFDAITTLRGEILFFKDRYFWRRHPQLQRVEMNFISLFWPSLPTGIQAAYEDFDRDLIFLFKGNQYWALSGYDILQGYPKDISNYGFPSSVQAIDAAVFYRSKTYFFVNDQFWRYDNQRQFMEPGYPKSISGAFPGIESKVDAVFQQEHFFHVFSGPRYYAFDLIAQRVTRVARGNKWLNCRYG

[4] = molecular target: T3, Matrix metalloproteinase-14 (Homo sapiens, UniProt P50281); assay: Inhibition of human MMP-14 using Mca-Pro-Leu-Gly-Leu-Dpa-Ala-Arg-NH2 as substrate preincubated for 1 hr followed by susbstrate addition by fluorescent analysis
[5] = molecular target: T4, 72 kDa type IV collagenase (Homo sapiens, UniProt P08253); assay: Inhibition of human MMP-2 using Mca-Pro-Leu-Gly-Leu-Dpa-Ala-Arg-NH2 as substrate preincubated for 1 hr followed by susbstrate addition by fluorescent analysis
T4 sequence (P08253 whole entry): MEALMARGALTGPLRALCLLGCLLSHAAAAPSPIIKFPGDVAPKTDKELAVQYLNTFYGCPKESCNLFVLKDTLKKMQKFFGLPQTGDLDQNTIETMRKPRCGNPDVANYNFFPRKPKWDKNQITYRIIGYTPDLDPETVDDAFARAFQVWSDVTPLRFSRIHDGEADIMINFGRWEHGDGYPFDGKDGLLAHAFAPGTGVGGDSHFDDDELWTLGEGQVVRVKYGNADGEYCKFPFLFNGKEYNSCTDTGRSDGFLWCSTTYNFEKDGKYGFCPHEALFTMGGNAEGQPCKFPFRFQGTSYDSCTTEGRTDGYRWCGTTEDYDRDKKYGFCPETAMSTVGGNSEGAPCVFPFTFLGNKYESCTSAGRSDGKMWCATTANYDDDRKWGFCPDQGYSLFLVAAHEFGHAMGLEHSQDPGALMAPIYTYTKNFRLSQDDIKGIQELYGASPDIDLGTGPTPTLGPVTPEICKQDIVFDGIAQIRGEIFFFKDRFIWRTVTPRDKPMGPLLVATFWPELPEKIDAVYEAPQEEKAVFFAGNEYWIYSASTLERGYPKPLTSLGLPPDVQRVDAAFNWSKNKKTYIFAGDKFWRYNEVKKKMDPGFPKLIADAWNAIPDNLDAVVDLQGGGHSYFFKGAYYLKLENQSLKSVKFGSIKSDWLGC

Collagenase 3 [6] = molecular target: T5, Collagenase 3 (Homo sapiens, UniProt P45452)
Description: Inhibition of MMP-13 (unknown origin)

[7] = Aqueous solubility of compound by UV spectroscopy; format: physicochemical
Stromelysin-1 [8] = molecular target: T6, Stromelysin-1 (Homo sapiens, UniProt P08254); assay: Inhibition of MMP-3 (unknown origin)
T6 sequence (P08254 whole entry): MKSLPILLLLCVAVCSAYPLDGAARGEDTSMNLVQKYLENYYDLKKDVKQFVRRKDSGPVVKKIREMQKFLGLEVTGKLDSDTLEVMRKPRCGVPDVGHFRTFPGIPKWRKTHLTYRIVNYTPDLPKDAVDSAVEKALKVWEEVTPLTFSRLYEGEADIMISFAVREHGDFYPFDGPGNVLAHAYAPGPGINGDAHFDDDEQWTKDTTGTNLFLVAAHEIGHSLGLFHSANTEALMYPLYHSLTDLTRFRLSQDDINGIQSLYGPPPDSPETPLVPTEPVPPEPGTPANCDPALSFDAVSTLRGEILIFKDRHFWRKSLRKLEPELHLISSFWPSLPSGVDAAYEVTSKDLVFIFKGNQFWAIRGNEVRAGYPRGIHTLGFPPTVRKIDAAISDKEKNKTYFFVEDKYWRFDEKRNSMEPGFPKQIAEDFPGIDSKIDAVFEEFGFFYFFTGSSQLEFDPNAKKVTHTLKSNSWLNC

[9] = molecular target: T7, Matrix metalloproteinase-9 (Homo sapiens, UniProt P14780); assay: Inhibition of MMP-9 (unknown origin) catalytic activity using Ac-PLG-[2-mercapto-4-methylpentanoyl]-LG-OC2H5 as substrate and measured upto 30 mins by microplate reader analysis
T7 sequence (P14780 whole entry): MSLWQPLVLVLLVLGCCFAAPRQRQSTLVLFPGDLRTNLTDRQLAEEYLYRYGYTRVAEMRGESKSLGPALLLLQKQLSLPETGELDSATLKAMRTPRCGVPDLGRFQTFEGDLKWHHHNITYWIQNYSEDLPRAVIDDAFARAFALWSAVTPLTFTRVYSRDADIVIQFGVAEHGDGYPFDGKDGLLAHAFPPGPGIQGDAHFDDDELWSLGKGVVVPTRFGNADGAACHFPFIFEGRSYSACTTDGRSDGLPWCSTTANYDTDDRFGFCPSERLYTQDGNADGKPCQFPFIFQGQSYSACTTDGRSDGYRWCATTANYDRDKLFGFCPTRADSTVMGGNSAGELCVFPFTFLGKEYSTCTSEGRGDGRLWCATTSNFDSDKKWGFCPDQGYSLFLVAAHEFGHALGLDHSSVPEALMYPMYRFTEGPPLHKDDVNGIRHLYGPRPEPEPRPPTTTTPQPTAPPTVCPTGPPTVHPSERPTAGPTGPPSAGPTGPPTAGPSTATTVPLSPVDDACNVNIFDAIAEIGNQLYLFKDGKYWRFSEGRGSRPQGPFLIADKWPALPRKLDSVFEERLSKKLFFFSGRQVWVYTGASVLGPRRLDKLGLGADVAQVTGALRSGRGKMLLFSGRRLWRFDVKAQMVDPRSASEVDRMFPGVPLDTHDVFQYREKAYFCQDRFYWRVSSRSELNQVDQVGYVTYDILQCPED

[10] = molecular target: T8, Macrophage metalloelastase (Homo sapiens, UniProt P39900); assay: Inhibition of MMP-12 (unknown origin)
T8 sequence (P39900 whole entry): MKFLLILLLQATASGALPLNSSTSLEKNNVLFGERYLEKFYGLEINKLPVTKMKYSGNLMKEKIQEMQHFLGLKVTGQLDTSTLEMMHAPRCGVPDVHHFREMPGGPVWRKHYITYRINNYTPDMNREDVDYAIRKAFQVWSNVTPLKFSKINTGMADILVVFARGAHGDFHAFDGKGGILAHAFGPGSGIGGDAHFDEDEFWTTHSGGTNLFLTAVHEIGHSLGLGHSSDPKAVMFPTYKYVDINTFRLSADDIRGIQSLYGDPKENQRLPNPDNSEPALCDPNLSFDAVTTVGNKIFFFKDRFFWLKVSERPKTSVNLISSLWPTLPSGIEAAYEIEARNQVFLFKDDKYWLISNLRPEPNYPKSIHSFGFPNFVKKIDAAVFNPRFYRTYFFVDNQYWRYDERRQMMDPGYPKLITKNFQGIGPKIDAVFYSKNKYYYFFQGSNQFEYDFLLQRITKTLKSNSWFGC

Stromelysin-2 [11] = molecular target: T9, Stromelysin-2 (Homo sapiens, UniProt P09238); assay: Inhibition of MMP-10 (unknown origin)
T9 sequence (P09238 whole entry): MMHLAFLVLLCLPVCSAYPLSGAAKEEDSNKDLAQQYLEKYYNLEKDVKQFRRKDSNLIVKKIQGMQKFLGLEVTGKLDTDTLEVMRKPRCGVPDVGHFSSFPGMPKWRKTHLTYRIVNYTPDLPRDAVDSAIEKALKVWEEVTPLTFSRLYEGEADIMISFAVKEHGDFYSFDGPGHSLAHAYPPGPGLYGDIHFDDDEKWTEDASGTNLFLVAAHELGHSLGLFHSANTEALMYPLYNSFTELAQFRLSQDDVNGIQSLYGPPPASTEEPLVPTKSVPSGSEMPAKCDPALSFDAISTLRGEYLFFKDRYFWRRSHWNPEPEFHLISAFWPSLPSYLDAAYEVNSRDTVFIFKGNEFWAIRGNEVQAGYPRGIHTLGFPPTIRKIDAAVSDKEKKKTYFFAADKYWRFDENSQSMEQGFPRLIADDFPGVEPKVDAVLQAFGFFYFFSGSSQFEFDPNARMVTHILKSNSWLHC

[12] = molecular target: T4, 72 kDa type IV collagenase; assay: Inhibition of MMP-2 (unknown origin) catalytic activity using Ac-PLG-[2-mercapto-4-methylpentanoyl]-LG-OC2H5 as substrate and measured upto 30 mins by microplate reader analysis
Neutrophil collagenase [13] = molecular target: T2, Neutrophil collagenase; assay: Inhibition of MMP-8 (unknown origin)
Interstitial collagenase [14] = molecular target: T1, Interstitial collagenase; assay: Inhibition of MMP-1 (unknown origin)
Matrilysin [15] = molecular target: T10, Matrilysin (Homo sapiens, UniProt P09237); assay: Inhibition of MMP-7 (unknown origin)
T10 sequence (P09237 whole entry): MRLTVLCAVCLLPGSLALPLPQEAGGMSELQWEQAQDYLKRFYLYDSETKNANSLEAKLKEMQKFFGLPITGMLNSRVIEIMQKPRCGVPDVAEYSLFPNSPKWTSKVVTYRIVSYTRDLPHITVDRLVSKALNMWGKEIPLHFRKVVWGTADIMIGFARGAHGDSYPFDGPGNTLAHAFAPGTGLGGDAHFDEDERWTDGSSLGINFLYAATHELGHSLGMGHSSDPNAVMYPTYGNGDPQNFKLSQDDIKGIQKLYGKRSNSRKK

[16] = molecular target: T3, Matrix metalloproteinase-14; assay: Inhibition of MMP-14 (unknown origin)
HT-1080 = assay: Inhibition of cell invasion in human HT-1080 for 22 hrs by CyQuantGR dye based fluorometric analysis; format: functional
Matrilysin [17] = molecular target: T10, Matrilysin; assay: Inhibition of human MMP-7 expressed in Escherichia coli BL21(DE3) using Mca-Pro-Leu-Gly-Leu-Dpa-Ala-Arg-NH2 as substrate preincubated for 30 mins followed by susbstrate addition by photon-counter spectrophotometer analysis
Collagenase 3 [18] = molecular target: T5, Collagenase 3; assay: Inhibition of human MMP-13 expressed in Escherichia coli BL21(DE3) using Mca-Pro-Leu-Gly-Leu-Dpa-Ala-Arg-NH2 as substrate preincubated for 30 mins followed by susbstrate addition by photon-counter spectrophotometer analysis
Stromelysin-2 [19] = molecular target: T9, Stromelysin-2; assay: Inhibition of human MMP-10 expressed in Escherichia coli BL21(DE3) using Mca-Pro-Leu-Gly-Leu-Dpa-Ala-Arg-NH2 as substrate preincubated for 30 mins followed by susbstrate addition by photon-counter spectrophotometer analysis
Interstitial collagenase [20] = molecular target: T1, Interstitial collagenase; assay: Inhibition of human MMP-1 expressed in Escherichia coli BL21(DE3) using Mca-Pro-Leu-Gly-Leu-Dpa-Ala-Arg-NH2 as substrate preincubated for 30 mins followed by susbstrate addition by photon-counter spectrophotometer analysis
Stromelysin-1 [21] = molecular target: T6, Stromelysin-1; assay: Inhibition of human MMP-3 expressed in Escherichia coli BL21(DE3) using Mca-Pro-Leu-Gly-Leu-Dpa-Ala-Arg-NH2 as substrate preincubated for 30 mins followed by susbstrate addition by photon-counter spectrophotometer analysis
Neutrophil collagenase [22] = molecular target: T2, Neutrophil collagenase; assay: Inhibition of human MMP-8 expressed in Escherichia coli BL21(DE3) using Mca-Pro-Leu-Gly-Leu-Dpa-Ala-Arg-NH2 as substrate preincubated for 30 mins followed by susbstrate addition by photon-counter spectrophotometer analysis
[23] = molecular target: T3, Matrix metalloproteinase-14; assay: Inhibition of human MMP-14 expressed in Escherichia coli BL21(DE3) using Mca-Pro-Leu-Gly-Leu-Dpa-Ala-Arg-NH2 as substrate preincubated for 30 mins followed by susbstrate addition by photon-counter spectrophotometer analysis
[24] = molecular target: T7, Matrix metalloproteinase-9; assay: Inhibition of human MMP-9 expressed in Escherichia coli BL21(DE3) using Mca-Pro-Leu-Gly-Leu-Dpa-Ala-Arg-NH2 as substrate preincubated for 30 mins followed by susbstrate addition by photon-counter spectrophotometer analysis
[25] = molecular target: T8, Macrophage metalloelastase; assay: Inhibition of human MMP-12 expressed in Escherichia coli BL21(DE3) using Mca-Pro-Leu-Gly-Leu-Dpa-Ala-Arg-NH2 as substrate preincubated for 30 mins followed by susbstrate addition by photon-counter spectrophotometer analysis
[26] = molecular target: T4, 72 kDa type IV collagenase; assay: Inhibition of human MMP-2 expressed in Escherichia coli BL21(DE3) using Mca-Pro-Leu-Gly-Leu-Dpa-Ala-Arg-NH2 as substrate preincubated for 30 mins followed by susbstrate addition by photon-counter spectrophotometer analysis
[27] = molecular target: T8, Macrophage metalloelastase; assay: Inhibition of recombinant human MMP-12 by ELISA
[28] = molecular target: T7, Matrix metalloproteinase-9; assay: Inhibition of recombinant human MMP-9 using peptide substrate by ELISA
B16-F10 [29] = assay: Inhibition of cell invasion in mouse B16-F10 cells at 100 uM by Matrigel invasion assay; format: functional
Interstitial collagenase [30] = molecular target: T1, Interstitial collagenase; assay: Inhibition of recombinant human MMP-1 using peptide substrate by ELISA
Collagenase 3 [31] = molecular target: T5, Collagenase 3; assay: Inhibition of recombinant human MMP-13 using peptide substrate by ELISA
Mus musculus [32] = assay: Antimetastatic activity in SCID mouse with human tumor cell orthotopic implantation assessed as reduction in tumor metastasis at 50 mg/kg, ip for 6 weeks; format: functional; design: scale not given: the % may be the effect or the level left
[33] = molecular target: T8, Macrophage metalloelastase; assay: Inhibition of recombinant human MMP-12 using peptide substrate by ELISA
[34] = Half life in Sprague-Dawley rats at 150 mg/kg, ip; format: ADME, organism-based; settings: rat, in vivo
[35] = Half life in Sprague-Dawley rats at 50 mg/kg, iv; format: ADME, organism-based; settings: rat, in vivo
Stromelysin-1 [36] = molecular target: T6, Stromelysin-1; assay: Inhibition of recombinant human MMP-3 using peptide substrate by ELISA
B16-F10 [37] = assay: Antimetastatic activity in mouse B16-F10 xenografted C57BL mouse melanoma model assessed as reduction in metastasis loci at 12.5 to 50 mg/kg, ip; format: functional; design: scale not given: the % may be the effect or the level left; settings: dose 12.5-50 mg/kg
Mus musculus [38] = assay: Antitumor activity against SCID mouse with human tumor cell orthotopic implantation assessed as reduction in tumor growth at 50 mg/kg, ip for 6 weeks; format: functional; design: scale not given: the % may be the effect or the level left
Neutrophil collagenase [39] = molecular target: T2, Neutrophil collagenase; assay: Inhibition of recombinant human MMP-8 using peptide substrate by ELISA
[40] = Half life in Sprague-Dawley rats at 150 mg/kg, po; format: ADME, organism-based; settings: rat, in vivo
[41] = molecular target: T4, 72 kDa type IV collagenase; assay: Inhibition of recombinant human MMP-2 using peptide substrate by ELISA
[42] = Inhibition of recombinant human TACE using peptide substrate by ELISA

SMILES: O=S(=O)(CC1CS1)c1ccc(Oc2ccccc2)cc1 (stereo not drawn)
inhibition in vivo at 25 mg/kg [1]: 14%

SMILES: NC(=O)[C@@H](CCC(=O)O)NC(=O)[C@@H](CCC(=O)O)NC(=O)[C@@H](Cc1cc(-c2ccc(-c3cccc(Cl)c3)cc2)no1)CP(=O)(O)c1ccc(Br)cc1
Ki (Matrilysin [17]): 626 nM
Ki (Collagenase 3 [18]): 49 nM
Ki (Stromelysin-2 [19]): 18400 nM
Ki (Interstitial collagenase [20]): 67000 nM
Ki (Stromelysin-1 [21]): 40 nM
Ki (Neutrophil collagenase [22]): 271 nM
Ki [23]: 140 nM
Ki [24]: 1260 nM
Ki [25]: 0.19 nM
Ki [26]: 192 nM

SMILES: CC(C)CC(C(=O)NC(c1noc(Sc2ccccc2)n1)C(C)(C)C)C(O)C(=O)NO (stereo not drawn)
IC50 [27]: 20 nM

SMILES: NC1CCCCC1NC(=O)P(=O)(O)O (stereo not drawn)
IC50 [28]: 20 nM
inhibition at 100 µM (B16-F10 [29]): 90%
IC50 (Interstitial collagenase [30]): > 100 nM
IC50 (Collagenase 3 [31]): > 100 nM
Activity (Mus musculus [32]): 90%
IC50 [33]: > 100 nM
half-life [34]: 1.8 h
half-life [35]: 0.313 h
IC50 (Stromelysin-1 [36]): > 100 nM
Activity (B16-F10 [37]): 50%
Activity (Mus musculus [38]): 60%
IC50 (Neutrophil collagenase [39]): > 100 nM
half-life [40]: 2.1 h
IC50 [41]: 4 nM
IC50 [42]: > 100 nM

Second part, led by results:

IC50 (Interstitial collagenase [2]): > 50000 nM
IC50 (Neutrophil collagenase [3]): > 2000 nM
IC50 [4]: > 2000 nM
IC50 [5]: > 2000 nM
SMILES: Cc1cc(=O)c(O)c(C(=O)NCc2ccc(-c3ccc(-c4ccccc4)cc3)cc2)o1

IC50 (Collagenase 3 [6]): 3.2 nM
solubility [7]: 996 µg/mL (≈ 2110 µM)
IC50 (Stromelysin-1 [8]): 50.5 nM
IC50 [9]: 43.9 nM
IC50 [10]: 4.8 nM
IC50 (Stromelysin-2 [11]): 44.5 nM
IC50 [12]: 1.7 nM
IC50 (Neutrophil collagenase [13]): 202 nM
IC50 (Interstitial collagenase [14]): > 1000 nM
IC50 (Matrilysin [15]): 825 nM
IC50 [16]: 286 nM
SMILES: CN(C)c1ccc(-c2cn(-c3ccc(S(=O)(=O)C4(C(=O)NO)CCOCC4)cc3)nn2)cc1
inhibition (INH) (HT-1080): 37%
